Data reported in patent US20260191836A1, “SOLID PREPARATION CONTAINING OXIDIZED CLOPIDOGREL AND PREPARATION METHOD THEREFOR” (CHENGDU SHIBEIKANG BIOMEDICAL TECHNOLOGY CO., LTD., priority 2022, published 2026).
Entries after “also recorded” stand apart in the source; their conditions may differ.

Experiment: Properties of the drug substance (solubility, BCS class, stability)
Assay type: physicochemical

- BCS biopharmaceutical classification: low-solubility and high-permeability
- solubility in acetonitrile (acetonitrile): soluble
- solubility in methanol (methanol): slightly soluble
- solubility in water (water): almost insoluble
Structure (SMILES): COC(=O)[C@H](c1ccccc1Cl)N1CC[C@@H]2SC(=O)C=C2C1 [(7aS, 2′S)-2-oxo-clopidogrel, methyl (S)-2-(2-chlorophenyl)-2-((S)-2-oxo-2,6,7,7a-tetrahydrothieno[3,2-c]pyridin-5 (4H)-yl)acetate]
- stability of the drug substance (in words): extremely prone to oxidative degradation; also recorded: instability under high temperature, acid and alkali conditions
